Literature values in US20110166112A1, “METHOD FOR STIMULATING PLATELET PRODUCTION” (Eisai, Inc., priority 2009, published 2011).

System: subjects
Conditions: in eight days; cited from earlier work

For `CC1=NN(c2ccc(C)c(C)c2)C(=O)/C1=N\Nc1cccc(-c2cccc(C(=O)O)c2)c1O.NCCO.NCCO` [Promacta®], the “subjects who achieved a platelet response of 50,000/mm^3” value is given as 44-62%.
